Data taken from patent US20040037806A1, “Aldosterone blocker therapy to prevent or treat inflammation-related disorders” (Pharmacia Corporation, priority 2002, published 2004).
Where “and” joins values, the source holds several entries; their conditions need not be identical. Equal values may be shown once. Entries after “also recorded” stand apart in the source; their conditions may differ.

Legend:
Format in all cases: in vivo, rat
[1] = Survival and cerebral injury in stroke-prone spontaneously hypertensive rats
[2] = Assay A: angiotensin II infusion model, urinary Na+/K+ ratio (natriuresis index); details: Wistar rats, 1% NaCl, angiotensin II 25 ng/min sc; eplerenone 100 mpk
Source text: Electrolyte excretion. The ratio between daily urinary Na^+ excretion and urinary K^+ excretion (U Na^+/K^+ ratio) was used as an index for natriuresis. Urinary Na^+/K^+ ratio was similar in all groups before the start of the treatments, and increased similarly in all animals upon initiation of the high salt diet.

[3] = Histopathological scores for renal injury in angiotensin II infused, captopril treated stroke prone spontaneously hypertensive rats; details: captopril treated stroke prone spontaneously hypertensive rats (FIG. 36)
[4] = Urinary protein excretion in angiotensin II infused, captopril treated stroke prone spontaneously hypertensive rats; details: captopril treated stroke prone spontaneously hypertensive rats (FIG. 35)
osteopontin [5] = assay: Assay B: serum osteopontin levels at 28 days; details: NaCl 1% drinking rats with aldosterone and eplerenone
[6] = Assay C: myocardial hydroxyproline colorimetric assay; details: 7 days of treatment; myocardium; aldosterone + salt alone or with eplerenone 100 mg/kg/day; individual rats and group Mean
Procedure: The procedure of Assay B was expanded upon in a further study. […] Myocardial tissue from animals in each treatment group was examined after 7, 14, or 30 days of treatment. […] Lesions were preceded by the expression and progressive upregulation of proinflammatory molecules. […] Prior to surgery the animals were individually weighed and placed in one of the following groups: […] Potassium chloride supplementation was added to the saline solution in order to prevent the potential hypokalemia associated with aldosterone excess. Treatment At the time of the surgery, an Alzet 2002 osmotic minipump (Alza Corp., Palo Alto, Calif.) containing either vehicle (9% ethanol/87% propylene glycol/4% dH2O) or 1.0 mg/mL d-aldosterone (Sigma Chemical, St. Louis, Mo.) was inserted subcutaneously at the nape of the neck. Aldosterone was administered at a dose of 0.75 µg/hour. […] Animals were sacrificed from each group (n=8-13) after 7, 14, or 30 days of treatment. Myocardial hydroxyproline concentration was measured by a colorimetric assay that quantifies the reaction between oxidized hydroxyproline, and p-dimethylaminobenzaldehyde as described previously (4). […] Samples were incubated at 60° C. for 30 min, cooled to room temperature, and absorbance was monitored at 558 nm. Hydroxyproline content was quantitated from a freshly prepared standard curve of trans-4-hydroxy-L-proline (Sigma, St. Louis, Mo.). […]

COX-2 = assay: Assay B: COX-2 mRNA by quantitative RT-PCR (Taqman)
Procedure: (§1) Assay B: In Vivo Aldosterone Infusion Model Determination of osteopontin and COX-2 was performed by quantitative RT-PCR (Taqman). Osteopontin was also identified in the heart by immunohistochemistry.

osteopontin [7] = assay: Assay B: osteopontin mRNA by quantitative RT-PCR (Taqman); details: aldosterone/salt-treated rats receiving vehicle
Procedure: as §1

[8] = Assay B: interstitial collagen volume fraction and hydroxyproline concentration (myocardial fibrosis); details: aldosterone/salt-treated uni-nephrectomized Sprague Dawley rats, 4 weeks
Procedure: Assay B: In Vivo Aldosterone Infusion Model Hearts were stained with hematoxylin&eosin and the collagen specific dye picro-sirius red and were analyzed for determination of interstitial collagen volume fraction and morphologic abnormalities (i.e. necrosis, vascular injury). Hydroxyproline concentration was measured in the frozen hearts.

## COC(=O)[C@@H]1CC2=CC(=O)CC[C@]2(C)[C@@]23O[C@@H]2C[C@@]2(C)[C@@H](CC[C@@]24CCC(=O)O4)[C@H]13 [eplerenone]
[1]; stroke-prone spontaneously hypertensive rats (FIG. 37)
  Survival: increased survival
[1]; stroke-prone spontaneously hypertensive rats (FIGS. 37, 38)
  Cerebral injury: reduced cerebral injury; also recorded: decrease in cerebral injury
[2]
  Urinary Na+/K+ ratio (index for natriuresis): did not produce a significant diuretic or natriuretic effect
[3]
  Histopathological scores for renal injury: reduction in histopathological scores for renal injury
[4]
  Urinary protein excretion: inhibition of increased urinary protein excretion
Osteopontin [5]
  Circulating (serum) osteopontin levels: marked decrease in circulating osteopontin levels
[6]
  Hydroxyproline: 4.08 µg/mg and 2.41 µg/mg

## C[C@]12CCC(=O)C=C1CC[C@@H]1[C@@H]2[C@@H](O)C[C@]2(C=O)[C@@H](C(=O)CO)CC[C@@H]12 [aldosterone]
COX-2; aldosterone/salt+vehicle treatment
  Increase of COX-2 mRNA expression vs control: 3 fold
COX-2; aldosterone/salt-treated rats, 4 weeks, vehicle or eplerenone 100 mpk p.o, control 1.2±0.12
  COX-2 relative mRNA expression in the heart: 3.7±0.46
Osteopontin [7]
  Upregulation of osteopontin mRNA vs control: 7 fold
[8]
  Myocardial fibrosis (interstitial collagen volume fraction, hydroxyproline concentration): absence of myocardial fibrosis
